Assay results reported in patent US11447517B2, “Galactoside inhibitor of galectins” (GALECTO BIOTECH AB, priority 2018, dated 2022).

Biological target: galectin-3 (Homo sapiens (Human), UniProt P17931)
Assay: Fluorescence anisotropy assay, inhibition of galectin / fluorescein tagged saccharide probe interaction
Type: binding
Method: Evaluation of Kd Values The affinity of Example 1-71 for galectins were determined by a fluorescence anisotropy assay where the compound was used as an inhibitor of the interaction between galectin and a fluorescein tagged saccharide probe as described Sörme, P., Kahl-Knutsson, B., Huflejt, M., Nilsson, U. J., and Leffler H. (2004) Fluorescence polarization as an analytical tool to evaluate galectin-ligand interactions. Anal. Biochem. 334: 36-47, (Sörme et al., 2004) and Monovalent interactions of Galectin-1 By Salomonsson, Emma; Larumbe, Amaia; Tejler, Johan; Tullberg, Erik; Rydberg, Hanna; Sundin, Anders; Khabut, Areej; Frejd, Torbjorn; Lobsanov, Yuri D.; Rini, James M.; et al, From Biochemistry (2010), 49(44), 9518-9532, (Salomonsson et al., 2010). […] 100 nM albumin was included as a carrier to prevent protein loss at such low concentration of galectin.

galectin-3, sequence (P17931 whole entry): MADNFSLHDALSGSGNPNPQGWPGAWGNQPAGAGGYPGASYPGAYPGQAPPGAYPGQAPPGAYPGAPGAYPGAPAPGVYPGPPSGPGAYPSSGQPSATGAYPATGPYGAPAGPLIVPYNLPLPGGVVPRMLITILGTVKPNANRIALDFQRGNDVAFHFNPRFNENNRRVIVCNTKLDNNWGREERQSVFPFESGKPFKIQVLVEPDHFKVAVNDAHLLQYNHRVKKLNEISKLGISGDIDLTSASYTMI

Row | Kd | SMILES
1 | 35 nM | C#Cc1cnc(C#N)c(S[C@H]2O[C@H](CO)[C@H](O)[C@H](n3cc(-c4cc(F)c(C)c(F)c4)nn3)[C@H]2OC)c1 [Example 57, 2-Cyano-5-ethynylpyridin-3-yl 3-deoxy-3-[4-(3,5-difluoro-4-methylphenyl)-1H-1,2,3-triazol-1-yl]-2-O-methyl-1-thio-α-D-galactopyranoside]
2 | 65 nM | CO[C@@H]1[C@@H](n2cc(-c3cc(F)c(F)c(F)c3)nn2)[C@@H](O)[C@@H](CO)O[C@@H]1Sc1cnc(C#N)c(Cl)c1 [Example 45, 3-Chloro-2-cyanopyridin-5-yl 3-deoxy-3-[4-(3,4,5-trifluorophenyl)-1H-1,2,3-triazol-1-yl]-2-O-methyl-1-thio-α-D-galactopyranoside]
3 | 31 nM | CO[C@@H]1[C@@H](n2cc(-c3cc(F)c(Cl)c(F)c3)nn2)[C@@H](O)[C@@H](CO)O[C@@H]1Sc1cncc(Cl)c1 [Example 33, 5-Chloropyridin-3-yl 3-[4-(4-chloro-3,5-difluorophenyl)-1H-1,2,3-triazol-1-yl]-3-deoxy-2-O-methyl-1-thio-α-D-galactopyranoside]
4 | 12 nM | CO[C@@H]1[C@@H](n2cc(-c3cc(F)c(F)c(F)c3)nn2)[C@@H](O)[C@@H](CO)O[C@@H]1Sc1cc(Cl)ccc1C(=O)N1CCC1 [Example 70, 2-(N-azetidinyl-carbonyl)-5-chlorophenyl 3-deoxy-3-[4-(3,4,5-trifluorophenyl)-1H-1,2,3-triazol-1-yl]-2-O-methyl-1-thio-α-D-galactopyranoside]
5 | 50 nM | CO[C@@H]1[C@@H](n2cc(-c3cc(F)c(Cl)c(F)c3)nn2)[C@@H](O)[C@@H](CO)O[C@@H]1Sc1cc(C)cnc1C#N [Example 49, 2-Cyano-5-methylpyridin-3-yl 3-[4-(4-chloro-3,5-difluorophenyl)-1H-1,2,3-triazol-1-yl]-3-deoxy-2-O-methyl-1-thio-α-D-galactopyranoside]
6 | 24 nM | CO[C@@H]1[C@@H](n2cc(-c3cc(F)c(F)c(F)c3)nn2)[C@@H](O)[C@@H](CO)O[C@@H]1Sc1cc(Cl)cnc1-c1ccccn1 [Example 25, 5-Chloro-2-(pyridin-2-yl)pyridin-3-yl 3-deoxy-3-[4-(3,4,5-trifluorophenyl)-1H-1,2,3-triazol-1-yl]-2-O-methyl-1-thio-α-D-galactopyranoside]
7 | 16 nM | CO[C@@H]1[C@@H](n2cc(-c3cc(F)c(F)c(F)c3)nn2)[C@@H](O)[C@@H](CO)O[C@@H]1Sc1cc(Br)ccc1C(=O)N1CCC1 [Example 64, 2-(N-azetidinyl-carbonyl)-5-bromophenyl 3-deoxy-3-[4-(3,4,5-trifluorophenyl)-1H-1,2,3-triazol-1-yl]-2-O-methyl-1-thio-α-D-galactopyranoside]
8 | 68 nM | CO[C@@H]1[C@@H](n2cc(-c3cc(F)c(F)c(F)c3)nn2)[C@@H](O)[C@@H](CO)O[C@@H]1Sc1cc(Cl)cnc1C1=CCNC1 [Example 29, 5-Chloro-2-(3-pyrrolin-3-yl)pyridin-3-yl 3-deoxy-3-[4-(3,4,5-trifluorophenyl)-1H-1,2,3-triazol-1-yl]-2-O-methyl-1-thio-α-D-galactopyranoside]
9 | 29 nM | CO[C@@H]1[C@@H](n2cc(-c3cc(F)c(F)c(F)c3)nn2)[C@@H](O)[C@@H](CO)O[C@@H]1Sc1cncc(Cl)c1 [Example 42, 5-Chloropyridin-3-yl 3-deoxy-3-[4-(3,4,5-trifluorophenyl)-1H-1,2,3-triazol-1-yl]-2-O-methyl-1-thio-α-D-galactopyranoside]
10 | 23 nM | CO[C@@H]1[C@@H](n2cc(-c3cc(F)c(Cl)c(F)c3)nn2)[C@@H](O)[C@@H](CO)O[C@@H]1Sc1cc(Br)cnc1C#N [Example 50, 5-Bromo-2-cyanopyridin-3-yl 3-[4-(4-chloro-3,5-difluorophenyl)-1H-1,2,3-triazol-1-yl]-3-deoxy-2-O-methyl-1-thio-α-D-galactopyranoside]
11 | 37 nM | CO[C@@H]1[C@@H](n2cc(-c3ccc(Cl)c(F)c3)nn2)[C@@H](O)[C@@H](CO)O[C@@H]1Sc1cc(Br)cnc1C#N [Example 51, 5-Bromo-2-cyanopyridin-3-yl 3-[4-(4-chloro-3-fluorophenyl)-1H-1,2,3-triazol-1-yl]-3-deoxy-2-O-methyl-1-thio-α-D-galactopyranoside]

Further lines, the compound ahead of its results:

Row | SMILES | Kd
12 | OCCO[C@@H]1[C@@H](n2cc(-c3cc(F)c(Cl)c(F)c3)nn2)[C@@H](O)[C@@H](CO)O[C@@H]1Sc1ccc(Cl)c(Cl)c1 [Example 21, 3,4-Dichlorophenyl 3-[4-(4-chloro-3,5-difluorophenyl)-1H-1,2,3-triazol-1-yl]-3-deoxy-2-O-(2-hydroxyethyl)-1-thio-α-D-galactopyranoside] | 58 nM
13 | COC1[C@@H](Sc2cc(Cl)cnc2N2CC3(COC3)C2)OC(CO)[C@H](O)[C@@H]1n1cc(-c2cc(F)c(Cl)c(F)c2)nn1 (stereo partly drawn) [Example 11, 5-Chloro-2-{N-(2-oxa)-6-azaspiro[3.3]heptanyl}-pyridin-3-yl 3-[4-(4-chloro-3,5-difluorophenyl)-1H-1,2,3-triazol-1-yl]-3-deoxy-2-O-methyl-1-thio-α-D-galactopyranoside] | 49 nM
14 | COC1[C@@H](Sc2cc(Cl)ccc2C(=O)N(C)C)OC(CO)[C@H](O)[C@@H]1n1cc(-c2cc(F)c(F)c(F)c2)nn1 (stereo partly drawn) [Example 3, 4-Chloro-N,N-dimethyl-benzamide-2-yl 3-deoxy-3-[4-(3,4,5-trifluorophenyl)-1H-1,2,3-triazol-1-yl]-2-O-methyl-1-thio-α-D-galactopyranoside] | 8 nM
15 | OC[C@H]1O[C@H](Sc2cncc(Br)c2)[C@H](OCCF)[C@@H](n2cc(-c3cc(F)c(F)c(F)c3)nn2)[C@H]1O [Example 19, 5-Bromopyridin-3-yl 3-deoxy-3-[4-(3,4,5-trifluorophenyl)-1H-1,2,3-triazol-1-yl]-2-O-(2-fluoroethyl)-1-thio-α-D-galactopyranoside] | 20 nM
16 | CO[C@@H]1[C@@H](n2cc(-c3cc(F)c(Cl)c(F)c3)nn2)[C@@H](O)[C@@H](CO)O[C@@H]1Sc1cc(Cl)ccc1C(=O)N1CCCCC1 [Example 6, 2-(N-piperidinyl-carbonyl)-5-chlorophenyl 3-[4-(4-chloro-3,5-difluorophenyl)-1H-1,2,3-triazol-1-yl]-3-deoxy-2-O-methyl-1-thio-α-D-galactopyranoside] | 120 nM
17 | CO[C@@H]1[C@@H](n2cc(-c3cc(F)c(C)c(F)c3)nn2)[C@@H](O)[C@@H](CO)O[C@@H]1Sc1cc(Cl)cnc1C#N [Example 12, 5-Chloro-2-cyanopyridin-3-yl 3-deoxy-3-[4-(3,5-difluoro-4-methylphenyl)-1H-1,2,3-triazol-1-yl]-2-O-methyl-1-thio-α-D-galactopyranoside] | 12 nM
18 | CCO[C@@H]1[C@@H](n2cc(-c3cc(F)c(F)c(F)c3)nn2)[C@@H](O)[C@@H](CO)O[C@@H]1Sc1cncc(Br)c1 [Example 17, 5-Bromopyridin-3-yl 3-deoxy-3-[4-(3,4,5-trifluorophenyl)-1H-1,2,3-triazol-1-yl]-2-O-ethyl-1-thio-α-D-galactopyranoside] | 74 nM
19 | CC(C)O[C@@H]1[C@@H](n2cc(-c3cc(F)c(F)c(F)c3)nn2)[C@@H](O)[C@@H](CO)O[C@@H]1Sc1cncc(Br)c1 [Example 18, 5-Bromopyridin-3-yl 3-deoxy-3-[4-(3,4,5-trifluorophenyl)-1H-1,2,3-triazol-1-yl]-2-O-isopropyl-1-thio-α-D-galactopyranoside] | 150 nM
